Measured values as given in PMC6792352, “Limited Chemical Structural Diversity Found to Modulate Thyroid Hormone Receptor in the Tox21 Chemical Library” (Environmental Health Perspectives, 2019).
Where a name gives a salt, the structure may show the parent alone.

Test: in vitro
Settings: rat, gh3-tre-luc cells

SMILES | CC50 at 24 h (AC50 (uM) modified / 1000) | further results
Cl/C=C/Cl [(E)-1,2-Dichloroethylene] |  | CC50 at 24 h (AC50 (uM) modified / 1000, Tox21_110001=Tox21_202419, viability, 1 nM T3 present, 24 h): > 90 µM
BrC/C=C/CBr [(E)-1,4-Dibromo-2-butene] | > 20 µM | 
CCC/C=C/CO [(E)-2-Hexen-1-ol] | > 90 µM | 
CCCCCC/C=C/C=O [(E)-2-Nonenal] | > 90 µM | 
O=C/C=C/c1ccco1 [(E)-3-(2-Furyl)acrolein] |  | CC50 at 24 h (AC50 (uM) modified / 1000, Tox21_110001=Tox21_202896, viability, 1 nM T3 present, 24 h): > 90 µM
CC/C=C/CCO [(E)-3-Hexen-1-ol] | > 90 µM | 
CCCCCCCC/C=C/CCCOC(C)=O [(E)-4-Tridecen-l-yl acetate] | > 90 µM | 
NC/C=C/C(=O)O [(E)-4-amino-2-butenoic acid] | > 50 µM | 
CCCC/C=C/CCCCO [(E)-5-Decen-1-ol] | > 90 µM | 
CC/C=C/CCCCCCCCCCOC(C)=O [(E)-11-Tetradecen-1-ol acetate] | > 90 µM | 
CCCCCC/C=C/CCCCCCCC(=O)O [(E)-Hexadec-9-enoic acid] | > 90 µM | 
CCN(Cc1ccc(Cl)nc1)/C(=C/[N+](=O)[O-])NC [(E)-Nitenpyram] | > 50 µM | 
CC(C)=CCC/C(C)=C/CC/C(C)=C/CC/C=C(\C)CC/C=C(\C)CCC=C(C)C [(E)-Squalene] | > 50 µM | 
O=[N+]([O-])/C=C/c1ccccc1 [(E)-beta-Nitrostyrene] | 13.7 µM | 
N#CCN(CC#N)CCN(CC#N)CC#N [(Ethylenedinitrilo)tetraacetonitrile] | > 90 µM | 
C[C]1([Mn](=[C]=O)(=[C]=O)=[C]=O)C=CC=C1 [(Methylcyclopentadienyl)tricarbonylmanganese] | > 90 µM | 
CSCc1cnccn1 [(Methylthio)methylpyrazine] | > 200 µM | 
CNc1ncnc2nc[nH]c12 [(N-6)-Methyladenine] | > 90 µM | 
Cc1cc(C)c(C(=O)P(=O)(C(=O)c2c(C)cc(C)cc2C)c2ccccc2)c(C)c1 [(Phenylphosphoryl)bis[(2,4,6-trimethylphenyl)methanone]] | > 90 µM | 
C[C@@H](N)C(=O)c1ccccc1 [(R)-(+)-Cathinone hydrochloride] | > 100 µM | 
CCCC1([C@H](O)C/C=C/[C@H]2[C@H](O)CC(=O)[C@@H]2CCCCCCC(=O)OC)CCC1 [(R)-Butaprost] | 32.9 µM | 
CC1=CC[C@H](C(C)C)C=C1 [(R)-alpha-Phellandrene] | > 90 µM | 

SMILES | CC50 at 24 h (AC50 (uM) modified / 1000) | further results
C[C@H](O)CN(C)C [(S)-(+)-1-Dimethylamino-2-propanol] | > 50 µM | 
COc1cc(C[C@H](C)N)c(OC)cc1C [(S)-(+)-2,5-Dimethoxy-4-methylamphetamine hydrochloride] | > 100 µM | 
C[C@@H](C1=C(CCN(C)C)Cc2ccccc21)c1ccccn1 [(S)-(+)-Dimethindene maleate] | 42.1 µM | 
CCN[C@@H](C)Cc1ccccc1 [(S)-(+)-N-Ethylamphetamine hydrochloride] | > 100 µM | 
CC[C@H](N)c1ccccc1 [(S)-(-)-1-Amino-1-phenylpropane] |  | CC50 at 24 h (AC50 (uM) modified / 1000, Tox21_110001=Tox21_202829, viability, 1 nM T3 present, 24 h): > 90 µM
CC(C)=CCC[C@H](C)CCO [(S)-(-)-beta-Citronellol] | > 90 µM | 
C=C[C@@H](C)CCC=C(C)C [(S)-Citronellene] | > 90 µM | 
CN[C@]1(c2ccccc2Cl)CCCCC1=O [(S)-Ketamine] | > 50 µM | 
C=C(C)[C@@H]1CC=C(C)CC1 [(S)-Limonene] | > 90 µM | 
CC[C@@]1(c2ccccc2)NC(=O)N(C)C1=O [(S)-Mephenytoin] | > 50 µM | 
CC(C)(C)NC[C@H](O)COc1nsnc1N1CCOCC1 [(S)-Timolol] | > 50 µM | 
CC/C=C/CCCCCCCCC1CC(=O)OC1=O (stereo not shown) [(Tetrapropenyl)succinic anhydride] | > 90 µM | 
Cl/C=C\Cl [(Z)-1,2-Dichloroethylene] |  | CC50 at 24 h (AC50 (uM) modified / 1000, Tox21_110001=Tox21_200003, viability, 1 nM T3 present, 24 h): > 90 µM
CC/C=C\CCO [(Z)-3-Hexen-1-ol] | > 90 µM | 
CCCCCCCC/C=C\CCCCCCCCN [(Z)-9-Octadecenylamine] | > 50 µM | 
CCCC/C=C\CCCCCCCCCC=O [(Z)-11-Hexadecenal] | > 90 µM | 
CC/C=C\CCCCCCCCCCOC(C)=O [(Z)-11-Tetradecenyl acetate] | > 90 µM | 
CCCCCC/C=C\CCCCCCCC(=O)O [(Z)-Hexadec-9-enoic acid] | > 90 µM | 
CCC(=C(CC)c1ccc(O)cc1)c1ccc(O)cc1 [(Z,E)-Diethylstilbestrol] | 12.2 µM | 
CC1(C)[C@H](/C=C(\Cl)C(F)(F)F)[C@@H]1C(=O)O[C@@H](C#N)c1cccc(Oc2ccccc2)c1 [?-Cyhalothrin] | > 80 µM | 
CCN(CC)CC1CCCCN1CC(=O)N1c2ccccc2C(=O)Nc2cccnc21 (stereo not shown) [AF-DX 116] | > 50 µM | 
CC1(C)CCC(C)(C)c2cc(C(=O)Nc3ccc(C(=O)O)cc3)ccc21 [AM580] | 66.2 µM | 

SMILES | CC50 at 24 h (AC50 (uM) modified / 1000) | further results
O=C1NCN(c2ccccc2)C12CCN(CCCOc1ccc(F)cc1)CC2 [AMI-193] | 14.1 µM | 
O=C(NC(=O)c1cc(F)c(F)cc1Cl)Nc1cc(F)ccc1N1CCC(C(=O)O)CC1 [AVE2865] |  | CC50 at 24 h (AC50 (uM) modified / 1000, Tox21_110001=Tox21_300253, viability, 1 nM T3 present, 24 h): > 50 µM
O=C(O)c1ccc2c(c1)nc(C(=O)NC1CCN(C3CC3)CC1)n2Cc1cc(-c2ccc(Cl)s2)on1 [AVE3247] | > 20 µM | 
CC[C@H](NC(=O)c1cc(F)ccc1NS(=O)(=O)c1cccc2cccnc12)c1ccccc1 [AVE3295] | > 90 µM | 
NCc1cccc(C2CCN(C(=O)c3ccc(C#Cc4ccccc4F)o3)CC2)c1 [AVE5638] | 6.44 µM | 
CCOC(=O)O[C@H](C)OC(=O)c1ccc2c(c1)cc(C(=O)NC1CCN(C(C)C)CC1)n2Cc1cc(-c2ccc(Cl)s2)on1 [AVE6324] | 4.58 µM | 
CN1CCN(Cc2cc(-c3ccc4[nH]c(=O)oc4c3)co2)[C@@H](c2ccc(F)cc2)C1 [AVE8488] | 24.8 µM | 
CCCOc1sc(C(=O)N2CCC(c3cc(CN)ccc3F)CC2)c(C)c1Br [AVE8923] | 3.52 µM | 
O=C(O)c1ccccc1-n1cc(C(=O)O)c(=O)c2cc(Nc3c(F)cc(F)cc3Cl)c(Cl)cc21 [AVE9423] | > 90 µM | 
Nc1nc(NC2CC2)c2ncn([C@H]3C=C[C@@H](CO)C3)c2n1 [Abacavir] | > 50 µM | 
CC(=O)O[C@H]1CC[C@@]2(C)C(=CC[C@@H]3[C@@H]2CC[C@]2(C)C(c4cccnc4)=CC[C@@H]32)C1 [Abiraterone acetate] | > 50 µM | 
CC1=CC(=O)CC(C)(C)[C@@]1(O)/C=C/C(C)=C\C(=O)O [Abscisic acid] | > 90 µM | 
NC(=O)c1ncn([C@@H]2O[C@H](CO)[C@@H](O)[C@H]2O)c1N [Acadesine] | > 50 µM | 
CC(=O)NCCCS(=O)(=O)O [Acamprosate calcium] | > 40 µM | 
C[C@H]1O[C@H](O[C@H]2[C@H](O)[C@@H](O)[C@@H](O[C@@H]([C@H](O)[C@@H](O)C=O)[C@H](O)CO)O[C@@H]2CO)[C@H](O)[C@@H](O)[C@@H]1N[C@H]1C=C(CO)[C@@H](O)[C@H](O)[C@H]1O [Acarbose] | > 50 µM | 
CCCC(=O)Nc1ccc(OCC(O)CNC(C)C)c(C(C)=O)c1 (stereo not shown) [Acebutolol hydrochloride] | > 20 µM | 
CCN(CC)CCNC(=O)c1ccc(NC(C)=O)cc1 [Acecainide hydrochloride] | > 50 µM | 
CC(=O)OC1CN2CCC1CC2 (stereo not shown) [Aceclidine] | > 50 µM | 
O=C(O)COC(=O)Cc1ccccc1Nc1c(Cl)cccc1Cl [Aceclofenac] | > 20 µM | 
CC(=O)O[C@@H]1C(=O)O[C@H]2[C@@H]1OC(=O)[C@@H]2OC(C)=O [Aceglatone] | > 50 µM | 
COc1ccc2c(c1)c(CC(=O)OCC(=O)O)c(C)n2C(=O)c1ccc(Cl)cc1 [Acemetacin] | > 50 µM | 
c1cc2c3c(cccc3c1)CC2 [Acenaphthene] | > 90 µM | 

SMILES | CC50 at 24 h (AC50 (uM) modified / 1000) | further results
O=C1C(=O)c2cccc3cccc1c23 [Acenaphthenequinone] |  | CC50 at 24 h (AC50 (uM) modified / 1000, Tox21_110001=Tox21_202947, viability, 1 nM T3 present, 24 h): > 90 µM
C1=Cc2cccc3cccc1c23 [Acenaphthylene] | > 90 µM | 
CC(=O)N[C@@H]([C@@H](O)[C@H](O)[C@H](O)CO)[C@@H](O)CC(=O)C(=O)O [Aceneuramic acid] | > 50 µM | 
CC(=O)CC(c1ccc([N+](=O)[O-])cc1)c1c(O)c2ccccc2oc1=O (stereo not shown) [Acenocoumarol] | > 20 µM | 
COP(=O)(NC(C)=O)SC (stereo not shown) [Acephate] |  | CC50 at 24 h (AC50 (uM) modified / 1000, Tox21_110001=Tox21_202204, viability, 1 nM T3 present, 24 h): > 90 µM
CC1=CC(=O)NS(=O)(=O)O1 [Acesulfame potassium] | > 90 µM | 
CCOC(C)OCC [Acetal] | > 90 µM | 
CC/C=C\CCOC(C)OCC (stereo not drawn) [Acetaldehyde ethyl cis-3-hexenyl acetal] | > 70 µM | 
CC=O [Acetaldehyde] | 3.09 µM | 
CC(N)=O [Acetamide] | > 200 µM | 
CC(=O)Nc1ccc(O)cc1 [Acetaminophen] | > 50 µM | 
CC(=O)Nc1ccc(OC(=O)c2ccccc2O)cc1 [Acetaminosalol] | > 50 µM | 
C/C(=N\C#N)N(C)Cc1ccc(Cl)nc1 [Acetamiprid] | > 90 µM | 
CC(=O)Nc1ccccc1 [Acetanilide] | > 90 µM | 
CC(=O)Nc1cc([As](=O)(O)O)ccc1O [Acetarsol] |  | CC50 at 24 h (AC50 (uM) modified / 1000, Tox21_110001=Tox21_111336, viability, 1 nM T3 present, 24 h): > 50 µM
CC(=O)Nc1nnc(S(N)(=O)=O)s1 [Acetazolamide] | > 90 µM | 
CCOC(=O)CS [Acetic acid,mercapto-,ethylester] | > 90 µM | 
CC(=O)OC(C)=O [Acetic anhydride] | > 90 µM | 
CC(=O)CC(=O)Nc1ccccc1 [Acetoacetanilide] | > 90 µM | 
